pIC50: −log10 of the molar value. Entries after “also recorded” stand apart in the source; their conditions may differ. Where two headings read alike, the source gives them in different places.
Assays:
[1] = test system: p185BCR-ABL/Arf-/- pre-B ALL cells; experiment: Acute lymphoblastic leukemia (ALL) model, bioluminescence imaging; format: in vivo, NSG mice; conditions: 50 mg/kg, days 4, 6, 8, 11 after inoculation
Method: The efficacy of Compound 9R and (R)-DI-82 single agent therapy against short-term cultures of murine BCR-ABL (p185), Arf^−/− pre-B ALL cells (p185^BCR-ABL/Arf^−/−) was assessed. This assay was previously described in Boulos, N. et al., 2011. “Chemotherapeutic agents circumvent emergence of dasatinib-resistant BCR-ABL kinase mutations in a precise mouse model of Philadelphia chromosome-positive acute lymphoblastic leukemia, Blood, 117:3585-3595 and Nathanson, D. 2014 “Co-targeting of convergent nucleotide biosynthetic pathways for leukemia eradication” J. Exp. Med. 211(3): 473-486, all of which are incorporated herein by reference.
Bioluminescent imaging and data analysis were performed using a Xenogen IVIS-200 system and Living Image Version 3.01 software (Caliper Life Sciences). […] Total flux measurements (photons/second) were quantified over the whole-animal body or a contour drawn around a target organ. […]
To evaluate the efficacy of Compound 9R and (R)-DI-82 in an in vivo B-ALL model, firefly luciferase—marked p185^BCR-ABL/Arf^−/− cells were inoculated intravenously in NSG mice. 4 days, 6 days, 8 days and 11 days after inoculation, bioluminescence imaging (BLI) of firefly luciferase-marked p185^BCR-ABL/Arf^−/− ALL-bearing NSG mice treated with 50 mg/kg compound 9R or 50 mg/kg (R)-DI-82 were measured. […]

dCK [2] = target: dCK (Mus musculus, UniProt P43346); experiment: Inhibition of dCK activity in vivo by [18F]L-FAC PET/CT imaging; conditions: mice, IP injection, [18F]L-FAC 4 h after treatment
Chain of dCK (Mus musculus, UniProt P43346) (P43346 whole entry): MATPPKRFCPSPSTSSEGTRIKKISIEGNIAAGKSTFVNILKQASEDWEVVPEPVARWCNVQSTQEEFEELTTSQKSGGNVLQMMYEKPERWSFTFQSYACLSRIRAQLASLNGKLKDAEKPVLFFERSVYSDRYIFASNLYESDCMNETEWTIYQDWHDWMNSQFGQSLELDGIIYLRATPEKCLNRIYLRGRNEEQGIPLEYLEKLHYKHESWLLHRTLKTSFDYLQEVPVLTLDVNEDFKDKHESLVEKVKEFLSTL
Method: [^18F]L-FAC PET/CT scans were performed as described in Shu, C.

[3] = test system: HUKEMIA Acute Myeloid Leukemia model AM-7577; experiment: Acute myeloid leukemia study, HUKEMIA model AM-7577 in NOD/SCID mice; format: in vivo, Mus Musculus; conditions: for ILS (increase in life-span): vs vehicle group
Method: In this study, NOD/SCID mice were injected (i.v.) with cells from a human donor diagnosed with AML (IDH2, FLT3-ITD, DNMT3A, and CEBPA mutations identified). Tumor burden was assessed by evaluation of human CD45 positive leukemia cells using FACS. The primary end point was animal survival. Median survival time (MST) and increase in life-span (ILS) were calculated for all animals.
The animals were inoculated HUKEMIA® Model AM-7577. The vehicle and treatment injections were started on Day 9 post cell inoculation Day 10 post cell inoculation, respectively.
Weekly Monitoring: Body weight was monitored twice a week. Human leukemia cells was detected by FACS weekly by CD45.
Endpoints and/or Termination: The end points varied according to the tumor burden growth in Vehicle group. The major end point was animal survival. The survival of all animals was followed and median survival time (MST) was calculated for each group. The increase in life-span (ILS) was calculated as follows: ILS (%)=100×[(Median Survival Time of drug treated group/Median Survival Time of vehicle group)−1](%).
Statistical Analysis: Data was evaluated using one way ANOVA. All data was analyzed using Prism 5.0 and IBM SPSS Statistics 19.0. p<0.05 was considered to be statistically significant.

dCK [4] = target: T1, dCK (Homo sapiens, UniProt P27707); experiment: Inhibition of [3H]-deoxycytidine (dCyd) uptake by CEM cells; format: cell-based; conditions: read-out: dCKi-IC-50
T1 construct: endogenous in cells; host or cells: CEM cells
T1 sequence (P27707 whole entry): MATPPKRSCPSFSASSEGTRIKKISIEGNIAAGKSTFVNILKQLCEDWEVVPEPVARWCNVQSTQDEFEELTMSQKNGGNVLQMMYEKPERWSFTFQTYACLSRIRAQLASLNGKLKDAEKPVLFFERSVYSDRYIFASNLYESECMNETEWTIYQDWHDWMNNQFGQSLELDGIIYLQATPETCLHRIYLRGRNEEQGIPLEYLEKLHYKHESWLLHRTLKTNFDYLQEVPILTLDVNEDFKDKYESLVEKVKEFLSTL
Method: 50,000 CEM cells/well were added to Millipore MultiScreen GV 96 well plates. Cells were resuspended at […] and incubated for 30 minutes at 37° C. The drug dilution plate was prepared by starting with an initial drug concentration of 10 mM in DMSO, and proceeding to make 1:5 dilutions for drug. […] and mixed by pipetting 10 times before removing 10 uL for next well (1:5 serial dilutions). The media and tritiated deoxycytidine was mixed together. […] of media/probe mixture was added to each well of an Optiplate. […] from drug plate was added to each well in the Optiplate to obtain drug/media/probe mixture and mixed. […] of drug/media/probe mixture from Optiplate was added to the cell plate and incubate at 37° C. for 1 hour. The cell plate was placed on vacuum to aspirate, and then washed with ice cold PBS: […] 1×PBS 4 times. The backing of the plate was peeled off, and the plate was placed in dryer for at least 30 minutes or until dry at 37° C. […] Scintillation fluid per well was added, and the plate was sealed with clear plate seal. The plate was read on the Microbeta instrument.

Compound | efficacy in the p185BCR-ABL/Arf-/- ALL model (bioluminescence) [1] | inhibition of dCK activity in vivo ([18F]L-FAC PET/CT) (dCK [2]) | tumor burden growth (human CD45 by FACS) ([3]; 25 mg/Kg) | Median survival ([3]; 25 mg/kg po BID x 46 days) | ILS (increase in life-span) ([3]; 25 mg/kg po BID) | tumor burden growth (human CD45 by FACS) ([3]; 50 mg/Kg) | Median survival ([3]; 50 mg/kg po BID x 46 days) | ILS (increase in life-span) ([3]; 50 mg/kg po BID) | tumor burden growth (human CD45 by FACS) ([3]; 100 mg/Kg) | Median survival ([3]; 100 mg/kg po BID x 46 days) | ILS (increase in life-span) ([3]; 100 mg/kg po BID) | tumor burden in peripheral blood vs vehicle ([3]; 100 mg/kg, day 44 post cell inoculation, p=0.021) | pIC50 (dCK [4]; [3H]-dCyd uptake) | pIC50 (dCK [4]; [3H]dC uptake, 0 mg/mL BSA) | pIC50 (dCK [4]; [3H]dC uptake, 25 mg/mL BSA) | pIC50 (dCK [4]; [3H]dC uptake, 50 mg/mL BSA)
COc1ccc(-c2nc([C@@H](C)Sc3nc(N)cc(N)n3)c(C)s2)cc1OCCNS(C)(=O)=O [(R)-DI-82, (R)—N-(2-(5-(4-(1-(4,6-diaminopyrimidin-2-ylthio)ethyl)-5-methylthiazol-2-yl)-2-methoxyphenoxy)ethyl)methanesulfonamide] | show efficacy | – | – | – | – | – | – | – | – | – | – | – | – | – | – | –
COc1ccc(-c2nc([C@@H](C)Sc3nc(N)cc(N)n3)c(C)s2)cc1OCCN1CCOCC1 [Compound 9R, (R)-2-(1-(2-(4-methoxy-3-(2-morpholinoethoxy)phenyl)-5-methylthiazol-4-yl)ethylthio)pyrimidine-4,6-diamine] | – | strongly inhibit dCK activity in vivo; also recorded: greater inhibition of dCK | significant increase post cells inoculation day 29 | 49 days | 0% | slowly increased during Day 29 to Day 44 post cell inoculation | 54 days | 10% | slowly increased during Day 29 to Day 44 post cell inoculation | 54 days | 10% | significant antitumor effects | 8.50 | 8.39 | 8.16 | 7.94
COc1ccc(-c2nc([C@H](C)Sc3nc(N)cc(N)n3)c(C)s2)cc1OCCN1CCOCC1 [Compound 9S, (S)-2-(1-(2-(4-methoxy-3-(2-morpholinoethoxy)phenyl)-5-methylthiazol-4-yl)ethylthio)pyrimidine-4,6-diamine] | – | – | – | – | – | – | – | – | – | – | – | – | 6.33 | – | – | –

Source: US10570124B2, “Deoxycytidine kinase binding compounds” (THE REGENTS OF THE UNIVERSITY OF CALIFORNIA, priority 2016, dated 2020)
